The values that follow come from patent publication US20220162169A1, “6-OXO-1,6-DIHYDROPYRIDAZINE PRODRUG DERIVATIVE, PREPARATION METHOD THEREFOR, AND APPLICATION THEREOF IN MEDICINE” (JIANGSU HENGRUI MEDICINE CO., LTD., priority 2019, published 2022).

Converted amounts (≈) assume the structure as drawn. Where a name gives a salt, the structure may show the parent alone.

A short description of series [1]: Solubility in PBS solution (pH 7.4) at room temperature. It is filed as physicochemical. The following applies: for solubility at 24 h: PBS solution (pH 7.4), aqueous buffer, kinetic from dmso stock, PBS pH 7.4, room temperature, 24 hours shaking, 1% DMSO, average of two measurements, read-out: Solubility in PBS pH7.4; for Solubility in the PBS solution (pH 7.4), in words: room temperature, PBS pH 7.4. The protocol:
Test Example 1. Solubility of the Compound of the Present Disclosure in PBS Solution (pH 7.4) at Room Temperature
2.1 Formulation of the PBS solution (pH 7.4): 0.57 g of NaH2PO42.H2O, 5.55 g of Na2HPO4.12H2O and 6.48 g of NaCl were weighed, followed by the addition of ultra-pure water. The pH was adjusted to 7.4±0.05 with 1 M NaOH or 1 M HCl. Water was added until the volume reached 1 L. The PBS solution was stored in a refrigerator at 4° C. (the storage life was 6 months).
2.2 Formulation of the solution of the compound in PBS 7.4: An appropriate amount of the test compound was weighed, and dissolved in DMSO or a mixed solution of DMSO:acetonitrile:ethanol (1:1:1) to obtain a 10 mM stock solution of the test compound. 10 μL of the stock solution of the test compound and 990 μL of the PBS solution (pH 7.4) were precisely measured and placed in a 2 mL sample vial and mixed well, and the DMSO concentration of the final solution was 1% (v/v). This solution was formulated in duplicate, shaken on a plate bed at room temperature for 24 hours, and centrifuged at 5000 rpm for 20 minutes. The supernatant was analyzed by the liquid chromatograph.
2.3 Formulation of the reference solution: 10 μL of the stock solution of the test sample (concentration: 10 mM, dissolved in DMSO) and 990 μL of an organic mixed solvent (usually DMSO:acetonitrile:ethanol=1:1:1) were precisely measured and placed in a 2 mL sample vial, and mixed well to obtain a clear 100 μM sample solution. The solution was filtered through a 0.45 μm organic phase microporous filter membrane, and the filtrate was analyzed by the liquid chromatograph.
Solubility (μM)=peak area of the sample/peak area of the reference*concentration of the reference (μM)*sample solution dilution factor
The average of two measurements was used as the final solubility.

The nature of series [2]: Pharmacokinetics assay in SD rats after intragastric administration, plasma LC/MS/MS. It is filed as in vivo. The following applies: for Detection of the administered prodrug compound itself in rat plasma: after intragastric administration, LC/MS/MS; for In vivo conversion of the prodrug into its metabolite: intragastric administration. How it is done:
Test Example 2. Pharmacokinetics Assay of the Compounds of the Present Disclosure in Rats
SD rats were used as test animals. The drug concentration in plasma at different time points was determined by LC/MS/MS method after oral administration of the compounds of Example 2, Example 6 and Example 7 to SD rats. The pharmacokinetic behavior of the compounds of the present disclosure was studied and evaluated in SD rats.
Forty SD rats (half male and half female, equally divided into ten groups) were purchased from Shanghai Jiesijie Laboratory Animal Co., LTD. (Certificate No.: SCXK(Shanghai) 2013-0006).
An appropriate amount of the compound of Example 2 was weighed, followed by the addition of 5% of DMSO, 5% of tween 80 and 90% of normal saline successively to obtain a colorless, clear and transparent solution.
An appropriate amount of the compound of Example 2 was weighed, followed by the addition of 0.5% sodium carboxymethyl cellulose (containing 0.5% tween 80) to obtain a white homogeneous suspension.
An appropriate amount of the compound of Example 6 was weighed, and added to 200 mM (5% PVPK30+5% TPGS) Na2HPO4 solution (pH=9) to obtain a homogeneous suspension.
An appropriate amount of the compound of Example 7 was weighed, and added to 200 mM (5% PVPK30+5% TPGS) Na2HPO4 solution (pH=9) to obtain a homogeneous suspension.
After an overnight fast, the SD rats were intragastrically administered the test compounds. Regarding to the compound of Example 2 (formulation: 5% of DMSO, 5% of tween 80 and 90% of normal saline), the administration dose was 2 mg/kg, the administration volume was 10 mL/kg, and the administration concentration was 0.2 mg/mL. Regarding to the compound of Example 2 (formulation: 0.5% sodium carboxymethyl cellulose (containing 0.5% tween 80)), the administration dose was 10, 30, 100 mg/kg, the administration volume was 10 mL/kg, and the administration concentration was 1, 3, 10 mg/mL. Regarding to the compound of Example 6, the administration dose was 100, 300, 900 mg/kg, the administration volume was 10 mL/kg, and the administration concentration was 10, 30, 90 mg/mL. Regarding to the compound of Example 7, the administration dose was 10, 30, 100 mg/kg, the administration volume was 10 mL/kg, and the administration concentration was 1, 3, 10 mg/mL.
After an overnight fast, the SD rats were intragastrically administered the test compounds. 0.2 ml of blood was taken from the orbit before the administration and at 0.5, 1.0, 2.0, 4.0, 6.0, 8.0, 11.0 and 24.0 hours after the administration. The samples were stored in heparinized tubes, and centrifuged for 10 minutes at 3500 rpm to separate the blood plasma. The plasma samples were stored at −20° C. The SD rats were fed 2 hours after the administration.
The content of the test compound in the plasma of SD rats after administration of the test compound at different concentrations was determined: 25 μL of SD rat plasma at each time point after the administration was taken, followed by the addition of 50 μL of the internal standard camptothecin solution (100 ng/mL) and 200 μL of acetonitrile. The resulting solution was vortex-mixed for 5 minutes, and centrifuged for 10 minutes (3700 rpm). 3.0 μL of the supernatant was taken from the plasma samples of the compound of Example 2 (the group at the administration dose of 2 mg/kg) for LC/MS/MS analysis. 2.0 μL of the supernatant was taken from the plasma samples of the compound of Example 2 (the group at the administration dose of 10, 30, or 100 mg/kg) for LC/MS/MS analysis. 0.2 μL of the supernatant was taken from the plasma samples of the compound of Example 6 for LC/MS/MS analysis. 1 μL of the supernatant was taken from the plasma samples of the compound of Example 7 for LC/MS/MS analysis. […]

The target in series [3] is T1, NaV1.8 ion channel (Homo sapiens, UniProt Q9Y5Y9).
T1 construct: expressed in transfected cells
T1 sequence (Q9Y5Y9 whole entry): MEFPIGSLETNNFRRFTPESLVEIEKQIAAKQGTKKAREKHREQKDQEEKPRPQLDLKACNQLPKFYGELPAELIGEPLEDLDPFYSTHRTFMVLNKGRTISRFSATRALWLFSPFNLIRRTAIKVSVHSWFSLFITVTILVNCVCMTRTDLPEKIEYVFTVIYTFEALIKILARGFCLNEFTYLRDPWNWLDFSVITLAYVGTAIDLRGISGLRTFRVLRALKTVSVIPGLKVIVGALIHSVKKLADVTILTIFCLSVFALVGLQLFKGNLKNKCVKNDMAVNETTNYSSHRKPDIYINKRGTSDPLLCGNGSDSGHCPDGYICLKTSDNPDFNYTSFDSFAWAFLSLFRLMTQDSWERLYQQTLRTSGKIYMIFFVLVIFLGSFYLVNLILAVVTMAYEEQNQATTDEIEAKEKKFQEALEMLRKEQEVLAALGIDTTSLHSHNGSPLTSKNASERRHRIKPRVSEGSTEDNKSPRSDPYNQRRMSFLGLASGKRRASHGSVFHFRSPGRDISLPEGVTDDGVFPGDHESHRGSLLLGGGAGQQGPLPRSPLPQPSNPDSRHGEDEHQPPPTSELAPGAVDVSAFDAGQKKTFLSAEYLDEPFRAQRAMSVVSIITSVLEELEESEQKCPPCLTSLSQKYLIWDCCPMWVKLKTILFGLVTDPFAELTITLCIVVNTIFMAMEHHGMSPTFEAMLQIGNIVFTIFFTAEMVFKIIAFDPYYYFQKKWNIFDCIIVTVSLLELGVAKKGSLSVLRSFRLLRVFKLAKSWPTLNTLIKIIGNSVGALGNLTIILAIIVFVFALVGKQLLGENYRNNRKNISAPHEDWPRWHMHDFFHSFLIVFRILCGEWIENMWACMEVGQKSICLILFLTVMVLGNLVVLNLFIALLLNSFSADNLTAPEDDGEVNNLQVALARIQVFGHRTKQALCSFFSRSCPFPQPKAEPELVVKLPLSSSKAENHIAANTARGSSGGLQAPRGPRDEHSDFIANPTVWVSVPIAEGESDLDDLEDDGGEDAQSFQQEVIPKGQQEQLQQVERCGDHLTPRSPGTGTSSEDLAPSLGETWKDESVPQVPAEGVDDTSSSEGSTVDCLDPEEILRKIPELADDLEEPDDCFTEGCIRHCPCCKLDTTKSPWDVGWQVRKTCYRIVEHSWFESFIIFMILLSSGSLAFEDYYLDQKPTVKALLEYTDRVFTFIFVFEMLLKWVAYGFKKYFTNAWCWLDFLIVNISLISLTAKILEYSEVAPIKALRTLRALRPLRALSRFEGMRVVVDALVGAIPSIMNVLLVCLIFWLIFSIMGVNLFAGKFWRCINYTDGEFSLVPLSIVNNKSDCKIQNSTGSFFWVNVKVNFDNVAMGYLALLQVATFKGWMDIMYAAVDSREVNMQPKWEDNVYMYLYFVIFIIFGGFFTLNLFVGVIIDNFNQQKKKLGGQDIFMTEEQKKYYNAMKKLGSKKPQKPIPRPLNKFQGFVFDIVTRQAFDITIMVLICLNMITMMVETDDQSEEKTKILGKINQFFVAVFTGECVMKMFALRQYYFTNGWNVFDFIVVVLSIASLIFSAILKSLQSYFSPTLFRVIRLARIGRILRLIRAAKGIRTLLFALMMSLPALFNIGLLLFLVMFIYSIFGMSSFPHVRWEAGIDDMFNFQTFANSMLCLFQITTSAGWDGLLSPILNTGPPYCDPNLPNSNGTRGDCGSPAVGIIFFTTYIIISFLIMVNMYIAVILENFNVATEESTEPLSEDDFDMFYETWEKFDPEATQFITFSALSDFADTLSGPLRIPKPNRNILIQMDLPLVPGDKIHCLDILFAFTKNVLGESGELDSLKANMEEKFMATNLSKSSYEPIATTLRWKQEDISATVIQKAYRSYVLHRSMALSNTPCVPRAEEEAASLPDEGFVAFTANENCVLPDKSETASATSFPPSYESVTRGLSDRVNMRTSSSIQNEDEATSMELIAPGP
Briefly: Manual patch clamp, inhibitory activity on NaV1.8 stably expressed on HEK293 cells. It is filed as cell-based. To be noted: HEK293 cells stably expressing NaV1.8, manual patch clamp, resting protocol (clamped at -80 mV, depolarized to 10 mV), 1 μM TTX; read-out: IC50 on inhibiting the Nav1.8 channel activity. The text has this: Test Example 3. Determination of the Inhibitory Activity of the Compounds of the Present Disclosure on NaV1.8
The purpose of the experiment is to investigate the effect of the compounds on NaV1.8 ion channel in an in vitro experiment, wherein the NaV1.8 ion channel is stably expressed on HEK293 cells. After the NaV1.8 current becomes stable, the NaV1.8 currents before and after the administration of the compound are compared so as to obtain the effect of the compound on the NaV1.8 ion channel.
Except for NaOH and KOH used for acid titration and base titration, all the compounds used for formulating the extracellular fluid and intracellular fluid were purchased from Sigma (St. Louis, Mo.). Extracellular fluid (mM): NaCl, 137; KCl, 4; CaCl2, 1.8; MgCl2, 1; HEPES, 10; glucose, 10; pH 7.4 (NaOH titration). Intracellular fluid (mM): aspartic acid, 140; MgCl2, 2; EGTA, 11; HEPES, 10; pH 7.2 (CsOH titration). All solutions of test compound and control compound contained 1 μM TTX.
The test compound was dissolved in dimethyl sulfoxide (DMSO) at a stock concentration of 9 mM. The stock solution of the test compound was dissolved in the extracellular fluid on the day of the test and formulated into the required concentration.
1) The compound was formulated into solutions with specified concentrations, the solutions were added to the pipelines respectively in order from low to high concentration, and the pipelines were marked.
2) The cell was transferred to the perfusion tank. A positive pressure was applied to the electrode. The tip of the electrode touched the cell. The three-way valve of the air extracting device was adjusted to a three-way state. […]
The cell was clamped at −80 mV. […] The maximum current caused by the square wave was measured. […] After the response became stable, the blocking intensity was calculated. […]
The inhibitory activity of the compounds of the present disclosure on NaV1.8 was determined by the above test, and the resulting IC50 values are shown in Table 3.
On the technique in general: The patch-clamp technique gives a direct electrical read-out from membranes.

As a reminder, the solubility is the concentration that dissolves in the medium under given conditions. As for `Cc1cc(F)ccc1Oc1cc(C(F)(F)F)c(Cl)cc1C(=O)Nc1cnn(COC(=O)CC(=O)O)c(=O)c1` [Example 10, 3-((4-(5-Chloro-2-(4-fluoro-2-methylphenoxy)-4-(trifluoromethyl)benzamido)-6-oxopyridazin-1(6H)-yl)methoxy)-3-oxopropanoic acid], in series [1], the solubility at 24 h stood at 147 µM (≈ 82 µg/mL).

As for `COc1cc(F)ccc1Oc1cc(C(F)(F)F)c(Cl)cc1C(=O)Nc1cn[nH]c(=O)c1` [Compound 6c, 5-Chloro-2-(4-fluoro-2-methoxyphenoxy)-N-(6-oxo-1,6-dihydropyridazin-4-yl)-4-(trifluoromethyl)benzamide], in series [1], the solubility at 24 h was found to be 0.44 µM (≈ 0.201 µg/mL) and the “Solubility in the PBS solution (pH 7.4), in words” value (“Solubility in the PBS solution” below) is recorded as “poor”.

Broadly, the IC50 is the point on the concentration scale where inhibition reaches its midpoint. Take `Cc1cc(F)ccc1Oc1cc(C(F)(F)F)c(Cl)cc1C(=O)Nc1cnn(COC(=O)CCC(=O)O)c(=O)c1` [Example 2, 4-((4-(5-Chloro-2-(4-fluoro-2-methylphenoxy)-4-(trifluoromethyl)benzamido)-6-oxopyridazin-1(6H)-yl)methoxy)-4-oxobutanoic acid]: the solubility at 24 h in series [1] came out at 57.4 µM (≈ 32.8 µg/mL). In series [2], the “Detection of the administered prodrug compound itself in rat plasma” value was “not detected” and the “In vivo conversion of the prodrug into its metabolite” value is “converted into compound 1h in vivo”. The IC50 in series [3] turned out to be 0.0376 µM.

As for `Cc1cc(F)ccc1Oc1cc(C(F)(F)F)c(Cl)cc1C(=O)Nc1cnn(COS(=O)(=O)O)c(=O)c1` [Example 8, (4-(5-Chloro-2-(4-fluoro-2-methylphenoxy)-4-(trifluoromethyl)benzamido)-6-oxopyridazin-1(6H)-yl)methyl hydrogen sulfate], the solubility at 24 h in series [1] came to 707 µM.

Consider `[2H]C([2H])([2H])Oc1cc(F)ccc1Oc1cc(C(F)(F)F)c(Cl)cc1C(=O)Nc1cn[nH]c(=O)c1` [Compound 7d, 5-Chloro-2-(4-fluoro-2-(methoxy-d3)phenoxy)-N-(6-oxo-1,6-dihydropyridazin-4-yl)-4-(trifluoromethyl)benzamide], for which, in series [1], the solubility at 24 h worked out at 1.26 µM (≈ 0.581 µg/mL) and the “Solubility in the PBS solution” value is recorded as “poor”.

Regarding `[2H]C([2H])([2H])Oc1cc(F)ccc1Oc1cc(C(F)(F)F)c(Cl)cc1C(=O)Nc1cnn(COS(=O)(=O)O)c(=O)c1` [Example 12, (4-(5-Chloro-2-(4-fluoro-2-(methoxy-d3)phenoxy)-4-(trifluoromethyl)benzamido)-6-oxopyridazin-1(6H)-yl)methyl hydrogen sulfate], the solubility at 24 h in series [1] came to 96.2 µM.

Consider `COc1cc(F)ccc1Oc1cc(C(F)(F)F)c(Cl)cc1C(=O)Nc1cnn(COC(=O)CCC(=O)O)c(=O)c1` [Example 6, 4-((4-(5-Chloro-2-(4-fluoro-2-methoxyphenoxy)-4-(trifluoromethyl)benzamido)-6-oxopyridazin-1(6H)-yl)methoxy)-4-oxobutanoic acid], for which the solubility at 24 h in series [1] turned out to be 44.9 µM (≈ 26.4 µg/mL). Further, in series [2], the “Detection of the administered prodrug compound itself in rat plasma” value is “not detected” and the “In vivo conversion of the prodrug into its metabolite” value is “converted into compound 6c in vivo”. In addition, the IC50 in series [3] was determined as 0.0039 µM.

For `Cc1cc(F)ccc1Oc1cc(C(F)(F)F)c(Cl)cc1C(=O)Nc1cnn(COC(=O)/C=C/C(=O)O)c(=O)c1` [Example 9, (E)-4-((4-(5-Chloro-2-(4-fluoro-2-methylphenoxy)-4-(trifluoromethyl)benzamido)-6-oxopyridazin-1(6H)-yl)methoxy)-4-oxobut-2-enoic acid], in series [1], the solubility at 24 h is 63.5 µM (≈ 36.2 µg/mL).

As for `Cc1cc(F)ccc1Oc1cc(C(F)(F)F)c(Cl)cc1C(=O)Nc1cn[nH]c(=O)c1` [Compound 1h, 5-Chloro-2-(4-fluoro-2-methylphenoxy)-N-(6-oxo-1,6-dihydropyridazin-4-yl)-4-(trifluoromethyl)benzamide], in series [1], the solubility at 24 h is 0.5 µM (≈ 0.221 µg/mL) and the “Solubility in the PBS solution” value is recorded as “poor”.

For `[2H]C([2H])([2H])Oc1cc(F)ccc1Oc1cc(C(F)(F)F)c(Cl)cc1C(=O)Nc1cnn(COC(=O)/C=C/C(=O)O)c(=O)c1` [Example 13, (E)-4-((4-(5-Chloro-2-(4-fluoro-2-(methoxy-d3)phenoxy)-4-(trifluoromethyl)benzamido)-6-oxopyridazin-1(6H)-yl)methoxy)-4-oxobut-2-enoic acid], the solubility at 24 h in series [1] was determined as 63.6 µM (≈ 37.4 µg/mL).
